Where two headings read alike, the source gives them in different places.
Assays:
[1] = system: synchronized Plasmodium falciparum parasites; assay: Microscopical study of cell morphology after 8-h exposures (Figure S4); assay type: cell-based; conditions: 3× the IC50^8h of the most sensitive life stage, 8-h intervals
[2] = system: 3D7-A10 or Dd2-B2 parasites; assay: Resistance selections (single step, pulsing or ramping); assay type: cell-based, Plasmodium falciparum
[3] = system: 3D7-MR4 trophozoite parasite-infected RBCs; assay: Metabolomic profiling (hydrophilic metabolite changes, UHPLC-MS); assay type: cell-based, Plasmodium falciparum
[4] = system: asynchronous 3D7-A10 parasite cultures; assay: Standard 72-h exposure asexual blood stage susceptibility assay (IC50^72h); assay type: cell-based, Plasmodium falciparum; conditions: Plasmodium falciparum, 3D7, 72 h, read-out: Overall (72hr assay) Mean IC50 (IC50^72h)
[5] = system: Plasmodium falciparum 3D7-A10 parasites; assay: Stage specificity assay (8-h exposure of synchronized stages, IC50^8h); assay type: cell-based; conditions: for IC50: Plasmodium falciparum
[6] = 10 × IC50^72h, 2.5 hr, trophozoites

CC(C)(C)OC(=O)N1CCN(c2ccccc2NC(=O)c2cccc(C(F)(F)F)c2Oc2ccc(F)cc2)CC1 [MMV030666]
digestive vacuole morphology [1]: bloated digestive vacuoles | most susceptible stage by cell morphology [1]: late trophozoite stage | outcome of ramping resistance selection ([2]; 3D7-A10, 1 × to 1.8 × IC50^72h over 3 months): did not produce resistance | outcome of resistance selections (continuous exposure or pulsing) ([2]; 5 × 10^8 to 1 × 10^9 3D7-A10 or Dd2-B2 parasites, 3–6 × IC50^72h): failed to yield resistance | minimum inocula of resistance ([2]; from failed selections in 3D7-A10 / Dd2-B2): above 5 × 10^8 parasites | metabolic signature: increases in the pyrimidine precursors dihydroorotate and N-carbamoyl-L-aspartate (mETC disruption) [3, 6]: observed | orotidine 5-P levels [3, 6]: decreased | peptide levels (hemoglobin catabolism signature) [3, 6]: decreased peptide levels | Log2(fold changes) 3-phosphoglycerate ([3]; metabolite 3-phosphoglycerate, log2 fold change): 0.0028 | Log2(fold changes) 4-Pyridoxic acid ([3]; metabolite 4-Pyridoxic acid, log2 fold change): -0.4279 | Log2(fold changes) 4-aminobutyrate ([3]; metabolite 4-aminobutyrate, log2 fold change): -0.0634 | Log2(fold changes) 4-phosphopantetheine ([3]; metabolite 4-phosphopantetheine, log2 fold change): -0.3320 | Log2(fold changes) 4-phosphopantothenate ([3]; metabolite 4-phosphopantothenate, log2 fold change): -1.0807 | Log2(fold changes) 5-aminopentanoic acid ([3]; metabolite 5-aminopentanoic acid, log2 fold change): 0.0000 | Log2(fold changes) 5-methyl-THF ([3]; metabolite 5-methyl-THF, log2 fold change): 0.0000 | Log2(fold changes) 5-phosphoribosyl-1-pyrophosphate ([3]; metabolite 5-phosphoribosyl-1-pyrophosphate, log2 fold change): -0.6917 | Log2(fold changes) 6-phospho-D-gluconate ([3]; metabolite 6-phospho-D-gluconate, log2 fold change): -0.3165 | Log2(fold change) HVDD ([3]; metabolite HVDD): -4.9061 | Log2(fold change) Hydroxyisocaproic acid ([3]; metabolite Hydroxyisocaproic acid): 0.0000 | Log2(fold change) IDP ([3]; metabolite IDP): 0.0000 | Log2(fold change) IMP ([3]; metabolite IMP): 0.0932 | Log2(fold change) Inositol ([3]; metabolite Inositol): 0.0000 | Log2(fold change) Isopentyl-PP ([3]; metabolite Isopentyl-PP): 0.0000 | Log2(fold change) L-arginino-succinate ([3]; metabolite L-arginino-succinate): -1.0911 | Log2(fold change) LD ([3]; metabolite LD): -0.6358 | Log2(fold change) Myristoyl/tetradecanoyl-CoA ([3]; metabolite Myristoyl/tetradecanoyl-CoA): 0.0000 | Log2(fold change) N-Acetyl-L-alanine ([3]; metabolite N-Acetyl-L-alanine): -0.5215 | Log2(fold change) N-acetyl-L-ornithine ([3]; metabolite N-acetyl-L-ornithine): 0.0000 | Log2(fold change) N-acetyl-glucosamine-1/6-phosphate ([3]; metabolite N-acetyl-glucosamine-1/6-phosphate): -0.1279 | Log2(fold change) N-acetyl-glutamate ([3]; metabolite N-acetyl-glutamate): 0.2373 | Log2(fold change) N-acetyl-glutamine ([3]; metabolite N-acetyl-glutamine): -0.0526 | Log2(fold change) N-carbamoyl-L-aspartate ([3]; metabolite N-carbamoyl-L-aspartate): 1.9816 | Log2(fold change) NAD+ ([3]; metabolite NAD+): -0.1975 | Log2(fold change) NADH ([3]; metabolite NADH): 1.6901 | Log2(fold change) NADP+ ([3]; metabolite NADP+): -0.2280 | Log2(fold change) NADPH ([3]; metabolite NADPH): 1.2462 | Log2(fold change) O-acetyl-L-serine ([3]; metabolite O-acetyl-L-serine): 0.0000 | Log2(fold change) Octoluse 8/1P ([3]; metabolite Octoluse 8/1P): 0.2225 | Log2(fold change) Octoluse Bisphosphate ([3]; metabolite Octoluse Bisphosphate): -1.0839 | Log2(fold change) PD ([3]; metabolite PD): -3.4872 | Log2(fold change) PE ([3]; metabolite PE): -3.3751 | Log2(fold change) PEE ([3]; metabolite PEE): -2.7815 | Log2(fold change) PEEK ([3]; metabolite PEEK): -2.6677 | Log2(fold change) PVNF ([3]; metabolite PVNF): -4.4222 | Log2(fold change) Pyroglutamic acid ([3]; metabolite Pyroglutamic acid): 0.3360 | Log2(fold change) Pyrophosphate ([3]; metabolite Pyrophosphate): 0.0000 | Log2(fold change) Ribose-5-phosphate ([3]; metabolite Ribose-5-phosphate): -0.7810 | Log2(fold change) S-adenosyl-L-homocysteine ([3]; metabolite S-adenosyl-L-homocysteine): 0.2136 | Log2(fold change) S-adenosyl-L-methioninamine ([3]; metabolite S-adenosyl-L-methioninamine): 0.0000 | Log2(fold change) S-adenosyl-L-methionine ([3]; metabolite S-adenosyl-L-methionine): 0.0000 | Log2(fold change) S-methyl-5'-thioadenosine ([3]; metabolite S-methyl-5'-thioadenosine): 0.3369 | Log2(fold change) SD ([3]; metabolite SD): -2.5205 | Log2(fold change) SDL ([3]; metabolite SDL): -4.4795 | Log2(fold change) SID ([3]; metabolite SID): 0.0000 | Log2(fold change) Sedoheptulose bisphosphate ([3]; metabolite Sedoheptulose bisphosphate): -0.5250 | Log2(fold change) Thiamine pyrophosphate ([3]; metabolite Thiamine pyrophosphate): -0.1162 | Log2(fold changes) UDP-D-glucose ([3]; metabolite UDP-D-glucose, log2 fold change): -0.1835 | Log2(fold changes) UDP-D-glucuronate ([3]; metabolite UDP-D-glucuronate, log2 fold change): -0.4871 | Log2(fold changes) UDP-N-acetyl-glucosamine ([3]; metabolite UDP-N-acetyl-glucosamine, log2 fold change): -0.5093 | Log2(fold changes) UDP ([3]; metabolite UDP, log2 fold change): -1.4928 | Log2(fold changes) UMP ([3]; metabolite UMP, log2 fold change): -0.5598 | Log2(fold changes) UTP ([3]; metabolite UTP, log2 fold change): -1.9407 | Log2(fold change) hydroxyphenylpyruvate ([3]; metabolite hydroxyphenylpyruvate): 0.0000 | Log2(fold change) hydroxyproline/Aminolevulinate ([3]; metabolite hydroxyproline/Aminolevulinate): -0.0744 | Log2(fold change) hypoxanthine ([3]; metabolite hypoxanthine): 0.1169 | Log2(fold change) indole ([3]; metabolite indole): 0.3440 | Log2(fold change) inosine ([3]; metabolite inosine): -0.2932 | Log2(fold change) isoleucine ([3]; metabolite isoleucine): -0.1542 | Log2(fold change) lactate ([3]; metabolite lactate): -0.3562 | Log2(fold change) leucine ([3]; metabolite leucine): -0.3099 | Log2(fold change) lysine ([3]; metabolite lysine): 0.0000 | Log2(fold change) malate ([3]; metabolite malate): -1.0993 | Log2(fold change) maleic acid ([3]; metabolite maleic acid): -0.3336 | Log2(fold change) methionine ([3]; metabolite methionine): -0.1260 | Log2(fold change) myo-inositol ([3]; metabolite myo-inositol): 0.0000 | Log2(fold change) nicotinamide mononucleotide ([3]; metabolite nicotinamide mononucleotide): 0.0000 | Log2(fold change) nicotinate ([3]; metabolite nicotinate): -0.1069 | Log2(fold change) ornithine ([3]; metabolite ornithine): 0.0000 | Log2(fold change) orotate ([3]; metabolite orotate): -0.1643 | Log2(fold change) orotidine-5'-phosphate ([3]; metabolite orotidine-5'-phosphate): -1.8500 | Log2(fold change) oxaloacetate ([3]; metabolite oxaloacetate): 0.0000 | Log2(fold change) p-aminobenzoate ([3]; metabolite p-aminobenzoate): 0.0000 | Log2(fold change) p-hydroxybenzoate ([3]; metabolite p-hydroxybenzoate): 0.0000 | Log2(fold change) pantothenate ([3]; metabolite pantothenate): -0.0587 | Log2(fold change) phenylalanine ([3]; metabolite phenylalanine): -0.5281 | Log2(fold change) phenylpyruvate ([3]; metabolite phenylpyruvate): 0.0000 | Log2(fold change) phosphoenolpyruvate ([3]; metabolite phosphoenolpyruvate): 0.0797 | Log2(fold change) prephenate ([3]; metabolite prephenate): 0.0000 | Log2(fold change) proline ([3]; metabolite proline): -0.4182 | Log2(fold change) pyridoxine ([3]; metabolite pyridoxine): 0.0000 | Log2(fold change) pyruvate ([3]; metabolite pyruvate): -1.3359 | Log2(fold change) riboflavin ([3]; metabolite riboflavin): -0.6446 | Log2(fold change) ribose ([3]; metabolite ribose): 0.0000 | Log2(fold change) ribose-phosphate ([3]; metabolite ribose-phosphate): 0.0000 | Log2(fold change) ribulose-5-phosphate ([3]; metabolite ribulose-5-phosphate): -0.3252 | Log2(fold change) serine ([3]; metabolite serine): -0.1988 | Log2(fold change) sn-glycerol-3-phosphate ([3]; metabolite sn-glycerol-3-phosphate): 0.6292 | Log2(fold change) succinate/Methylmalonic acid ([3]; metabolite succinate/Methylmalonic acid): -1.4071 | Log2(fold change) succinyl-CoA/methylmalonyl-CoA ([3]; metabolite succinyl-CoA/methylmalonyl-CoA): -0.7249 | Log2(fold change) taurine ([3]; metabolite taurine): 0.0000 | Log2(fold change) thiamine ([3]; metabolite thiamine): 0.0000 | Log2(fold change) threonine/homoserine ([3]; metabolite threonine/homoserine): -0.8029 | Log2(fold change) thymidine ([3]; metabolite thymidine): 0.0000 | Log2(fold changes) thymine ([3]; metabolite thymine, log2 fold change): 0.0000 | Log2(fold changes) trehalose-6-Phosphate ([3]; metabolite trehalose-6-Phosphate, log2 fold change): 0.0000 | Log2(fold changes) tryptophan ([3]; metabolite tryptophan, log2 fold change): 0.1993 | Log2(fold changes) tyrosine ([3]; metabolite tyrosine, log2 fold change): -0.2219 | Log2(fold changes) uridine ([3]; metabolite uridine, log2 fold change): 0.0000 | IC50 [4]: 0.462 µM | Ratio lowest IC50 8hr/IC50 72hr ([5]; 3D7-A10): 1.9 | killing in stage specificity assay ([5]; 8-h exposures, survival curves): incomplete killing | IC50 ([5]; 3D7, read-out: Early rings Mean IC50 (IC50^8h), 8-h exposure 0–8 hr, 3D7-A10, survival at 60 h): 10.3 µM | IC50 ([5]; 3D7, read-out: Early trophozoites Mean IC50 (IC50^8h), 8-h exposure 16–24 hr, 3D7-A10, survival at 60 h): 5.12 µM | IC50 ([5]; 3D7, read-out: Late rings Mean IC50 (IC50^8h), 8-h exposure 8–16 hr, 3D7-A10, survival at 60 h): 11.4 µM | IC50 ([5]; 3D7, read-out: Late trophozoites Mean IC50 (IC50^8h), 8-h exposure 24–32 hr, 3D7-A10, survival at 60 h): 0.858 µM | IC50 ([5]; 3D7, read-out: Schizonts Mean IC50 (IC50^8h), 8-h exposure 32–40 hr, 3D7-A10, survival at 60 h): 4.19 µM | Stage of peak activity (Figure 6) ([5]; period when the parasite was most susceptible (lowest IC50^8h)): late trophozoites | Peak Activity (Table S1) ([5]; stage(s) with the lowest IC50^8h): Late Trophs
